# “Also recorded” adds a separate entry of the source.
# Tests used:
# LN229 [1] = experiment: Invasion assay (Matrigel), LN229; assay type: cell-based
# Text: (§1) The Invasion Assay provides an in vitro system to study cell invasion of malignant and normal cells. Specific applications include assessment of the metastatic potential of tumor cells. Invasion chambers coated with Corning® Matrigel® matrix provide cells with the conditions that allow assessment of their invasive capacity in vitro. Corning Matrigel matrix serves as a reconstituted basement membrane in vitro, occluding the pores of the membrane and blocking non-invasive cells from migrating through the membrane. In contrast, invasive cells (malignant and non-malignant) secrete proteases that enzymatically degrade the Corning Matrigel matrix and enable invasion through the membrane pores.
# (§2) In order to assess whether DYRK1A plays a role in cell invasion, we performed an invasion assay using the two GBM cell lines U87MG and LN229. […] Inhibition of DYRK1A using FC2 and FC3 can also decrease the metastatic potential of GBM cells, thus making them good therapeutic candidates for EGFR-dependent GBM.
# U87MG cells [2] = experiment: Neurosphere proliferation assay, U87MG; assay type: cell-based; details: for proliferation of U87MG cells, assessed by neurosphere diameter: 5 μM, 10 μM, and 20 μM, compared to DMSO vehicle control; for neurosphere proliferation: U87MG DYRK1A knockouts rescued with point mutant F238LM240R, compared to DYRK1A wild-type treated cells; for neurosphere proliferation (neurosphere numbers and size): U87MG, serum free conditions with growth factors
# Protocol: (§3) Neurospheres are free-floating 3-D clusters of neural stem cells that are grown in serum-free media supplemented with growth factors. These cells have the capacity to self-renew and differentiate into cell types present within the tumor of origin. They are also responsible for tumor propagation, recurrence and resistance to traditional treatments. Neurosphere assays are commonly used to uncover more relevant brain tumor biology than traditional culture conditions. Several parameters can be assayed including neurosphere number and size. Neurosphere formation remained a significant predictor of clinical outcome in GBM, independent of the Ki67 labeling index. […] Self-renewal is the ability of a single cell to form a neurosphere.
# (§4) Two EGFR-dependent GBM cell-lines, U87MG and LN229 were grown under serum free conditions with growth factors to induce the formation of neurospheres. Their stemness was confirmed using a western blot to detect stem cell markers. […] This reaffirmed the fact that DYRK1A plays a crucial role in regulating neurosphere self-renewal in GBM.
# Compounds of Formula I therefore have an anticancer potential and inhibit proliferation of cells with a cancer phenotype.
# LN229 [3] = experiment: Neurosphere proliferation assay, LN229; assay type: cell-based; details: LN229, serum free conditions with growth factors
# Protocol: as §3, §4
# DYRK1A = DYRK1A (Homo sapiens (Human), UniProt Q13627); experiment: Radiolabelled kinase assay (IC50 determination), DYRK1A; details: read-out: DYRK1A IC50 (nm)
# Protocol: Protein kinase assays using radiolabeled [γ-^32P] […] In this assay, the activity of a protein kinase is measured using an appropriate acceptor peptide or protein substrate. The assay method involves the use of P81 phosphocellulose paper squares to capture the phosphorylated peptides or proteins resulting from the protein kinase reaction. The activity of DYRK1A was measured by its ability to phosphorylate the peptide termed Woodtide that is derived from the substrate FKHR (Forkhead in rhabdomyosarcoma) at Ser329. Two lysine residues are added at the N-terminus of the peptide to facilitate its binding to the phosphocellulose paper ([sequence]). Assays were carried out at 30° C. for 10 mins using 25 μM Woodtide in 50 mM HEPES pH 7.5, 50 mM MgCl2, 50 mM DTT and 0.1 mM [γ-^32P] ATP (106 c.p.m./nmol). […] The readings were taken using a scintillation counter and data was analyzed using GraphPad Prism 8. One unit of enzyme activity was the amount that catalyzed the phosphorylation of 1 nmol of Woodtide in 1 min.
# [4] = target: panel of 140 different kinases; experiment: Panel of 140 different kinases; assay type: biochemical
# PIM1 = PIM1 (Homo sapiens (Human), UniProt P11309); experiment: Kinase assay, PIM1 IC50; assay type: biochemical
# DYRK1A point mutants [5] = target: DYRK1A point mutants (Homo sapiens, UniProt Q13627, F238L); experiment: In-vitro radiolabeled kinase assays against DYRK1A point mutants; assay type: biochemical; details: F238L
# Text: (§5) Kinase domains contain a gatekeeper residue that partially or fully blocks a hydrophobic region deep in the ATP binding pocket. The gatekeeper residue contributes to the selectivity of kinases for small molecule inhibitors. Based on the DYRK1A crystal structure with FC3 and sequence alignment, the gatekeeper residue in DYRK1A is Phe238 which is replaced by a smaller […] in case of PIM1 and other PIM kinases. Similarly, Met240, two residues after the gatekeeper residue was very unique to DYRK1A. Another interesting residue was Ser241 which was conserved among DYRKs. Point mutants of the gatekeeper residue (F238L), Met240 (M240R), […] and a double mutant (F238LM240R) were created to evaluate if the point mutants show resistance towards FC2 and FC3.
# (§6) In-vitro radiolabeled kinase assays were used to determine the IC50s of FC2 and FC3 against the DYRK1A point mutants. There was no change in the Km or Vmax of the point mutants of DYRK1A and their activity was similar to wild-type DYRK1A.
# DYRK1A point mutants [6] = target: DYRK1A point mutants (Homo sapiens, UniProt Q13627, F238L/M240R); experiment: as above; assay type: biochemical; details: F238LM240R
# Text: as §5, §6
# DYRK1A point mutants [7] = target: DYRK1A point mutants (Homo sapiens, UniProt Q13627, M240R); experiment: as above; assay type: biochemical; details: M240R
# Text: as §5, §6
# U87MG cells [8] = experiment: Invasion assay (Matrigel), U87MG; assay type: cell-based; details: for ability of the cells to invade the Matrigel chamber / cell invasion (cells crossing matrigel membrane): U87MG; for invasion: U87MG DYRK1A knockouts rescued with point mutant F238LM240R, compared to DYRK1A wild-type treated cells; for cell invasion (cells crossing matrigel membrane): 5 μM and 10 μM, relative to DMSO vehicle
# Text: as §1, §2
# DYRK1A point mutants [9] = target: DYRK1A point mutants (Homo sapiens, UniProt Q13627, S242A); experiment: In-vitro radiolabeled kinase assays against DYRK1A point mutants; assay type: biochemical; details: S242A
# Text: as §5, §6
# PIM1, sequence (P11309 whole entry): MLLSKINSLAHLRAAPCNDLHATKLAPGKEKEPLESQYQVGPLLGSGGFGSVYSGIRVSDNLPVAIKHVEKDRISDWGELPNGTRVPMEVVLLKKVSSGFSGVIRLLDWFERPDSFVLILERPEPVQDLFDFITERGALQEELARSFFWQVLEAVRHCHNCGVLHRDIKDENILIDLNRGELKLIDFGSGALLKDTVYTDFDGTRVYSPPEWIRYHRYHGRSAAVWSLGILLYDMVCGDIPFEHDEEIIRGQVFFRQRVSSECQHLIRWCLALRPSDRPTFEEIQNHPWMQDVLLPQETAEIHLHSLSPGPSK
compound,measurement,setting,value
"Oc1ccc(-c2nc3cc4c(cc3s2)OCO4)cc1O [FC-2, 4-([1,3]Dioxolo[4′,5′:4,5]benzo[1,2-d]thiazol-6-yl)benzene-1,2-diol]",ability of the cells to invade the Matrigel chamber,LN229 [1],impaired the ability of the cells to invade
same,"proliferation of U87MG cells, assessed by neurosphere diameter",U87MG cells [2],significantly inhibited proliferation
same,neurosphere proliferation,U87MG cells [2],did not show a decrease
same,neurosphere proliferation (neurosphere numbers and size),U87MG cells [2],significant decrease in neurosphere proliferation
same,neurosphere proliferation (neurosphere numbers and size),LN229 [3],significant decrease in neurosphere proliferation
same,IC50,DYRK1A,19 nM
same,kinase specificity,[4],very specific to the DYRK family of kinases
same,PIM1 IC50 (nm),PIM1,Micromolar inhibition
same,IC50 against DYRK1A point mutant versus wild-type,DYRK1A point mutants [5],significantly higher
same,IC50 against DYRK1A double mutant versus wild-type,DYRK1A point mutants [6],even higher
same,IC50 against DYRK1A point mutant versus wild-type,DYRK1A point mutants [7],significantly higher
same,ability of the cells to invade the Matrigel chamber,U87MG cells [8],impaired the ability of the cells to invade
same,invasion,U87MG cells [8],did not show a decrease
same,cell invasion (cells crossing matrigel membrane),U87MG cells [8],significantly inhibited cell invasion; also recorded: reduces the invasive ability
"O=C(c1ccc(O)c(O)c1)c1nc2cc(O)c(O)cc2s1 [FC-3, (5,6-Dihydroxybenzo[d]thiazol-2-yl)(3,4-dihydroxyphenyl)methanone]",ability of the cells to invade the Matrigel chamber,LN229 [1],impaired the ability of the cells to invade
same,"proliferation of U87MG cells, assessed by neurosphere diameter",U87MG cells [2],significantly inhibited proliferation
same,neurosphere proliferation,U87MG cells [2],did not show a decrease
same,neurosphere proliferation (neurosphere numbers and size),U87MG cells [2],significant decrease in neurosphere proliferation
same,neurosphere proliferation (neurosphere numbers and size),LN229 [3],significant decrease in neurosphere proliferation
same,IC50,DYRK1A,53 nM
same,kinase specificity,[4],very specific to the DYRK family of kinases
same,PIM1 IC50 (nm),PIM1,Micromolar inhibition
same,IC50 against DYRK1A point mutant versus wild-type,DYRK1A point mutants [5],significantly higher
same,IC50 against DYRK1A double mutant versus wild-type,DYRK1A point mutants [6],even higher
same,IC50 against DYRK1A point mutant versus wild-type,DYRK1A point mutants [7],significantly higher
same,IC50 against DYRK1A point mutant versus wild-type,DYRK1A point mutants [9],significantly higher
same,ability of the cells to invade the Matrigel chamber,U87MG cells [8],impaired the ability of the cells to invade
same,invasion,U87MG cells [8],did not show a decrease
same,cell invasion (cells crossing matrigel membrane),U87MG cells [8],significantly inhibited cell invasion; also recorded: reduces the invasive ability
"COc1cc(O)c(C(=O)c2nc3cc(O)c(O)cc3s2)cc1O [FC-4, (2,5-Dihydroxy-4-methoxyphenyl)(5,6-dihydroxybenzo[d]thiazol-2-yl)methanone]",IC50,DYRK1A,87 nM
same,IC50,PIM1,174 nM
Oc1cc2nc(-c3ccc(O)c(O)c3O)sc2cc1O [FC-5],IC50,DYRK1A,95 nM
same,IC50,PIM1,144 nM
"COc1cc(O)c(C(=O)c2nc3cc(O)ccc3s2)cc1O [FC-6, (2,5-Dihydroxy-4-methoxyphenyl)(5-hydroxybenzo[d]thiazol-2-yl)methanone]",IC50,DYRK1A,180 nM
same,IC50,PIM1,552 nM
"O=C(c1ccc(O)c(O)c1)c1nc2c(O)ccc(O)c2s1 [FC-7, (4,7-Dihydroxybenzo[d]thiazol-2-yl)(3,4-dihydroxyphenyl)methanone]",IC50,DYRK1A,229 nM
same,PIM1 IC50 (nm),PIM1,Micromolar inhibition
"COc1ccc(O)c2nc(C(=O)c3ccc(O)c(O)c3)sc12 [FC-7A, (3,4-dihydroxyphenyl)(4-hydroxy-7-methoxybenzo[d]thiazol-2-yl)methanone]",IC50,DYRK1A,560 nM
"COc1ccc(C(=O)c2nc3cc(O)c(O)cc3s2)cc1F [FC-8, (5,6-Dihydroxybenzo[d]thiazol-2-yl)(3-fluoro-4-methoxyphenyl)methanone]",IC50,DYRK1A,238 nM
same,IC50,PIM1,317 nM
"Oc1ccc(-c2nc3ccc4nn[nH]c4c3s2)cc1O [FC-10, 4-(1H-thiazolo[5′,4′:3,4]benzo[1,2-d][1,2,3]triazol-7-yl)benzene-1,2-diol]",IC50,DYRK1A,110 nM
"Oc1ccc(-c2nc3c(ccc4[nH]cnc43)s2)cc1O [FC-14, 4-(6H-imidazo[4′,5′:5,6]benzo[1,2-d]thiazol-2-yl)benzene-1,2-diol]",IC50,DYRK1A,400 nM
O=C(c1nc2cc(O)c(O)cc2s1)c1cc(O)c(O)cc1O [FC-63],IC50,PIM1,238 nM
O=[N+]([O-])c1ccc(O)cc1-c1nc2cc3c(cc2s1)OCO3 [FC-115],IC50,DYRK1A,524 nM
same,PIM1 IC50 (nm),PIM1,No Inhibition
"Oc1ccc(-c2nc3ccc4[nH]ncc4c3s2)cc1O [FC-196, 4-(6H-thiazolo[5,4-e]indazol-2-yl)benzene-1,2-diol]",IC50,DYRK1A,500 nM
"Oc1ccc(-c2nc3cc4cn[nH]c4cc3s2)cc1O [FC-204, 4-(1H-thiazolo[4,5-f]-indazol-6-yl)benzene-1,2-diol]",IC50,DYRK1A,57 nM
"COc1ccc(-c2nc3cc4cn[nH]c4cc3s2)cc1OC [FC-205, 6-(3,4-dimethoxyphenyl)-1H-thiazolo[4,5-f]-indazole]",IC50,DYRK1A,206 nM
S=C1Cc2ccc(-c3nc4cc5c(cc4s3)OCO5)cc2N1 [FC-208],IC50,DYRK1A,560 nM
"CCN1/C(=C/C(C)=O)Sc2ccc(O)cc21 [INDY, reference compound]","proliferation of U87MG cells, assessed by neurosphere diameter",U87MG cells [2],did not inhibit proliferation
